Results: patent US9255128B2, “Nucleic acid for determining actin structures in living cells” (Max-Planck-Gesellschaft zur Forderung der Wissenschaften …, priority 2007, dated 2016)

Key:
non-muscle actin = assay: F-actin co-sedimentation assay, non-muscle actin; format: binding
Description: Muscle actin, non-muscle actin, α-actinin and pyrene actin were purchased from Cytoskeleton, Inc. Actin was diluted to working concentrations in G buffer (2 mM Tris HCl, pH 8.0, 0.2 mM ATP, 0.1 mM CaCl2, 0.5 mM DTT).
Polymerization of actin was induced by addition of 0.1 volume 10×KMEI buffer (50 mM KCl, 1 mM MgCl2, 1 mM EGTA, 10 mM imidazole HCl, pH 7.0) and incubation for >1 h at room temperature (RT). […] The supernatant was removed and the pellet resuspended in 100 μl of 1×KMEI buffer. The amount of peptide was measured in a Cary Eclipse Fluorescence Spectrophotometer with excitation/emission set for FITC at 495 nm/520 nm. The bound/total ratio was calculated as the signal from the pellet divided by the total signal. The Kd was obtained by fitting to a hyperbolic curve.

F-actin in MDCK cells = assay: Double staining of PFA fixed MDCK cells with Cy3-conjugated phalloidin; format: cell-based, canine; conditions: TIRF microscopy
Source text: (§1) TIRE images were captured on an iMic-stand from Till photonics with an 1.45 NA 100× objective from Olympus. A 300 mW Argon laser and a 20 mW DPSS 561 nm laser were selected through an AOTF. A 2-axis scan head (Yanus II) was used to digitally adjust the TIRE angle. Images were collected with a cooled Imago QE CCD camera. Acquisition was controlled by the TILLvisION software package. Confocal images were collected on a standard Leica SP2 setup. Epifluorescence images were collected on a Zeiss axiovert 200M stand equipped with a climate control chamber from EMBL.

[1] = tested on: MDCK and mouse embryonic fibroblasts; assay: Cytotoxicity, morphology and growth of transfected cells; format: cell-based; conditions: transiently and stably transfected cells
Description: (§2) Mouse primary dendritic cells were generated from flushed bone marrow suspension as described previously^30. At day 8-10 cells were nucleofected using the primary mouse T cell kit and the Amaxa nucleoporator according to the manufacturers recommendations and immediately after transfection 200 ng/ml LPS were added over night and cells were subsequently sorted into GFP positive and negative fractions by using fluorescent activated cell sorting. MDCK cells and mouse embryonic Fibroblasts were grown according to standard procedures and transfected using lipofectamine.

[2] = tested on: mouse embryonic fibroblasts; assay: Lamellipodial retrograde actin flow in fibroblasts; format: cell-based; conditions: transfected fibroblasts; indistinguishable from untransfected cells
Source text: as §1
All image processing steps were performed in Metamorph (Molecular Devices). For visualization purposes sequences were routinely processed by sequential application of a local background subtraction filter and a 3×3 gauss low pass filter. Color overlays and kymographs were created with the respective functions in Metamorph.
as §2, with “MDCK cells and mouse embryonic Fibroblasts were grown according to standard procedures and transfected using lipofectamine.” left out

mouse dendritic cells = assay: Chemotactic dendritic cell migration in 3-dimensional collagen matrix; format: cell-based; conditions: CCL19 gradient
Description: as §2
PureCol™ gels containing mature dendritic cells were cast as described previously. Gels were overlayed with 50 μl of 0.6 μg/ml CCL19 (R&D Systems) in RPMI, 10% FCS and imaged on an inverted Axiovert 40 (Zeiss) microscopes, equipped with custom built climate chambers (5% CO2, 37° C., humidified). Under agarose dendritic cell migration was performed as described^31. Briefly, dendritic cells were added into wells punched into an agarose layer. Recombinant CCL19 was added into the adjacent well and, following the chemokine gradient, the cells entered the space between agarose and coverslip. Chemotaxing cells were subsequently imaged with TIRF microscopy.

[3] = tested on: primary rat hippocampal neurons; assay: Neuronal polarization of transfected hippocampal neurons; format: cell-based; conditions: mock transfected cells 69±9%
Description: Primary hippocampal neurons were isolated from rat embryos as previously described. Briefly, hippocampi derived from E18 rats were dissected, trypsinized, and dissociated. Directly after dissociation, 5×10^5 hippocampal neurons were transfected by the Amaxa nucleofector system using 3 μg of highly purified plasmid DNA of pEGFP-Lifeact, pEGFP-actin or pEGFP-N2. The neurons were then immediately plated onto poly-L-lysine-coated glass coverslips in 6 cm petri dishes containing minimal essential medium (MEM) and 10% heat-inactivated horse serum. The cells were kept in 5% CO2 at 36.5° C. 6-12 hrs after plating the glass coverslips were then transferred into 6 cm petri dishes containing astrocytes in MEM and N2 supplements and kept in culture for 2DIV.
Neurons were categorized into three stages: neurons with a single axon, multiple axons or no axon. A neurite length >35 μm was used as threshold to define the axon. Developmental stages were observed by live cell microscopy as described.

[4] = Solubility of peptide in PBS; format: physicochemical

With `CC[C@H](C)[C@H](NC(=O)[C@H](CC(C)C)NC(=O)[C@H](CC(=O)O)NC(=O)[C@H](C)NC(=O)[C@@H](NC(=O)CNC(=O)[C@H](CCSC)NC(=S)Nc1ccc2c(c1)C(=O)OC21c2ccc(O)cc2Oc2cc(O)ccc21)C(C)C)C(=O)N[C@@H](CCCCN)C(=O)N[C@@H](CCCCN)C(=O)N[C@@H](Cc1ccccc1)C(=O)N[C@@H](CCC(=O)O)C(=O)N[C@@H](CO)C(=O)N[C@H](C(=O)N[C@@H](CO)C(=O)N[C@@H](CCCCN)C(=O)N[C@@H](CCC(=O)O)C(=O)N[C@@H](CCC(=O)O)C(=O)O)[C@@H](C)CC` [F-Lifeact] the Kd (non-muscle actin) was 5.4 ± 2.6 µM and the “overlap with phalloidin staining” value (F-actin in MDCK cells) was “nearly complete overlap”.
In the case of “Lifeact-G: Lifeact-GFP fusion expressed from pEGFP-N1 backbone under the CMV promoter”, the signs of cytotoxicity [1] is reported as “no signs of cytotoxicity”, the “speed of retrograde flow in lamellipodia” value [2] is reported as 4 μm/min and the “effect on speed of chemotactic dendritic cell migration” value (mouse dendritic cells) is reported as “no effect”. The “cells formed one axon” value [3] was 60.1±0.2%.
With `CC[C@H](C)[C@H](NC(=O)[C@H](CC(C)C)NC(=O)[C@H](CC(=O)O)NC(=O)[C@H](C)NC(=O)[C@@H](NC(=O)CNC(=O)[C@@H](N)CCSC)C(C)C)C(=O)N[C@@H](CCCCN)C(=O)N[C@@H](CCCCN)C(=O)N[C@@H](Cc1ccccc1)C(=O)N[C@@H](CCC(=O)O)C(=O)N[C@@H](CO)C(=O)N[C@H](C(=O)N[C@@H](CO)C(=O)N[C@@H](CCCCN)C(=O)N[C@@H](CCC(=O)O)C(=O)N[C@@H](CCC(=O)O)C(=O)O)[C@@H](C)CC` [Lifeact] the “solubility in PBS” value [4] was “not soluble in PBS”.
